We go through two molecules from patent US20250312320A1, “METHOD AND TREATMENT FOR OSTEOARTHRITIS AND DISEASES OF CHONDROCYTE HYPERTROPHY” (The Royal Veterinary College, priority 2022, published 2025).

Test [1] deals with THP-1 derived macrophages. Nature of the test: LPS stimulated THP-1 derived macrophages: gene expression. Type of test: cell-based, human. The settings on record: 1 μM, 1 h pretreatment + 24 h LPS. The method, then:
THP-1 monocytes were differentiated into macrophages via treatment with 50 ng/ml phorbol 12-myristate 13-acetate (PMA) in THP-1 growth media (RPMI-1640, 100 μg/ml Primocin, 10% FBS, 0.05 mM β-mercaptoethanol) for 48 hours. Macrophages were then washed twice to remove PMA containing media before a 1-hour pretreatment with 1 μM BI1347 or 100 nM MSC2530818. Inflammatory stimulation was then initiated via the addition of lug/ml lipopolysaccharide (LPS) for 24 hours in the presence of 1 μM BI1347 or 100 nM MSC2530818. Gene expression analysis was subsequently carried out as previously outlined. For MSC2530818 treated/LPS stimulated cells, media supernatant was used for IL-1β cytokine analysis quantification via ELISA (PeproTech, ABTS Human IL-1β development ELISA) as per manufacturer instructions.

Test [2] concerns C57/BL-6 bone marrow derived osteoclasts. Nature of the test: Primary osteoclast number and resorption on dentin discs. Type of test: cell-based, mouse. Conditions: 1 μM, N=8. The method, then:
Osteoclasts were isolated from the bone marrow of the long bones of 8-week old C57/BL-6 mice and cultured for 24 hours in osteoclast basal media (MEM supplemented with 10% FBS, 2 mM L-glutamine, 1% Ab/Am). After 24 hours, 1×10^6 osteoclasts were seeded onto dentin discs in osteoclast differentiation media (basal media supplemented with 100 nM PGE2, 200 ng/ml MCSF, 3 ng/ml RANKL pH 7.3) for 24 hours before addition of 1 μM BI1347 or DMSO for 3 days (N=8). On day 5 of culture, osteoclast resorption was initiated by addition of 10 mM hydrochloric acid to acidify differentiation media to pH 7.0 for 2 days. On day 7, discs were fixed in 2.5% glutaraldehyde, tartrate resistant acid phosphatase (TRAP) stained and imaged using Axiovert Microscope at ×10 magnification to observe osteoclast resorption.
Pre-osteoclast and osteoclast numbers were counted using the automated counting method developed by Davies et al. 2021 (currently under review) using Ilastik software in Image J (Fiji, US). Resorption area on each disc was manually counted and analysed using Image J software.

For test [3], the system named is primary canine articular chondrocytes. Briefly: Primary canine articular chondrocytes in chondrogenesis and IL1β OA disease model: gene expression. The class given is cell-based. The settings on record: 100 nM. As to the method: Articular cartilage was isolated, placed into a petri dish containing phosphate buffer saline (PBS) supplemented with 2% Ab/Am (PBS-Ab/Am) and transferred to a laminar flow hood for processing. Cartilage shavings were minced using a sterile scalpel to approximately 1 mm^3 and washed in fresh PBS-Ab/Am by centrifugation at 500×g for 10 minutes. Supernatant was removed and the cartilage pellet resuspended in 5 ml TrypLE™ (Gibco) before incubation at 37° C. for 10 minutes with gentle agitation. Dissociated cartilage fragments were pelleted and washed to remove excess TrypLE and resuspended in DMEM-complete media (DMEM/F12 (Gibco), 1% Ab/Am, 10% FBS) supplemented with 2 mg/ml Collagenase Type II and incubated overnight at 37° C. with gentle agitation. The cartilage digest was pelleted, washed and subsequently resuspended in DMEM-complete. Released cells were counted using a haematocytometer and seeded at 10,000 cells per cm^2. The cultures were incubated at 37° C., 5% CO2 in a humidified incubator for 2 days before refreshing DMEM-complete every 2 days until confluency. For differentiation experiments, primary chondrocytes were differentiated in DMEM/F12 containing 2% FBS, 1% Ab/Am, 1× Insulin-Transferrin-Selenium premix, 10 ng/ml TGFβ3 (primary chondrocyte differentiation media).
Additional experiments were carried out on primary chondrocytes (equine, canine and human) and ihMSC (TERT immortalised human mesenchymal stromal cell line) to investigate whether CDK8i protects from IL-1β induced degradation when added throughout the entirety of differentiation/IL-1β treatment. Briefly, ihMSCs were seeded at a density of 5×10^4 cells per 10 μl micromass and differentiated in ihMSC chondrogenic media (1% FBS, 1% Ab/Am, 1× Insulin-Transferrin-Selenium premix, 10 μM Y-27632, 100 nM dexamethasone, 50 μg/ml ascorbic acid, 20 ng/ml TGF-β3 (Peprotech)). Primary chondrocytes were seeded at 2.7×10^5 cells per 10 μl micromass and differentiated in primary chondrocyte differentiation media. All micromasses were differentiated for 12 days in the presence of 100 nM […] or DMSO. Some micromasses were processed for gene expression analysis/alcian blue staining on day 12, whilst others were treated with IL-β media (1% FBS, 1% Ab/Am, 10 ng/ml IL-1B) and CDK8i for 48-hours before processing for alcian blue staining/gene expression analysis on day 14 as previously described.

“Also recorded” adds a separate entry of the source.

Turning to `CN(C)C(=O)Cn1cc(-c2ccc(-c3cncc4ccccc34)cc2)cn1` [BI1347], in test [1], the “NF-κB gene expression, decrease vs DMSO” value is recorded as 6 fold and the “TLR4 gene expression, decrease vs DMSO” value was determined as 9 fold. Further, in test [2], the “mature osteoclast number vs DMSO” value is “no effect; also recorded: no change”; the “osteoclast resorptive activity, reduction vs DMSO” value was 2.3 fold; the “pre-osteoclast number vs DMSO” value is reported as “no effect; also recorded: no change”.

In the case of `Cc1n[nH]c2ncc(C(=O)N3CCC[C@H]3c3ccc(Cl)cc3)cc12` [MSC2530818], in test [3] (OA disease model (+IL1β), N=1), the “ACAN gene expression, increase vs DMSO” value turned out to be 3 fold; the “CNMD gene expression, increase vs DMSO” value is reported as 6 fold; the “MATN3 gene expression, increase vs DMSO” value stood at 6 fold; the “SMOC2 gene expression, increase vs DMSO” value came out at 2 fold. In addition, in test [3] (OA disease model (+IL1β), ns), the “COL2A1 gene expression, increase vs DMSO” value was found to be 13 fold and the “TIMP4 gene expression, increase vs DMSO” value is given as 1.1 fold. Moreover, in test [3] (chondrogenic (−IL1β), N=1), the “ACAN gene expression, increase vs DMSO” value was 2 fold; the “CNMD gene expression, increase vs DMSO” value is 7 fold; the “COL2A1 gene expression, increase vs DMSO” value is reported as 5 fold; the “MATN3 gene expression, increase vs DMSO” value is 2 fold. In test [3] (chondrogenic (−IL1β), N=1), the “SMOC2 gene expression, increase vs DMSO” value was determined as 2 fold and the “TIMP4 gene expression, increase vs DMSO” value came out at 4 fold. In addition, the “ADAMTS5 gene expression, reduction vs DMSO” value in test [3] (disease model (+IL1β), ns) came out at 1.4 fold.
